# Measurements: PMC3914206
# How the values were obtained:
# [1] = target: T1, panel of 442 kinases (Homo sapiens, UniProt Q04771); type: binding; conditions: Compound Concentration 10 µM
# T1 construct: purchased KINOMEscan
# T1 sequence (Q04771 21-509): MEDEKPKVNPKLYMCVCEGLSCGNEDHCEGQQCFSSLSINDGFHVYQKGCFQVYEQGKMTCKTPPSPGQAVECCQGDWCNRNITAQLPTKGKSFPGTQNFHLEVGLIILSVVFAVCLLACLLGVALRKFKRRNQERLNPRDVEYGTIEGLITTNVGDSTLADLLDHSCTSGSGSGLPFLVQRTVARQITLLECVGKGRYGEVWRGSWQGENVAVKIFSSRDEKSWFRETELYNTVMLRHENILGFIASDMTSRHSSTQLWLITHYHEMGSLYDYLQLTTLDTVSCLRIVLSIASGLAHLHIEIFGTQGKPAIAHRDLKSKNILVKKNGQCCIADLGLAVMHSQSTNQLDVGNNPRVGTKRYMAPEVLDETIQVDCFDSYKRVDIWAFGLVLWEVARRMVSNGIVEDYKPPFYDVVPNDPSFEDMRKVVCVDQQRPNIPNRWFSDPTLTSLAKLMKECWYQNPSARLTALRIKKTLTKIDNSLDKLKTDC
# Source text: (§1) We assessed the selectivity of members of this scaffold using the KINOMEscan methodology across a near comprehensive panel of 442 kinases [[18,27]].
# [2] = target: T2, panel of 442 kinases (Homo sapiens, UniProt P29320); type: binding; conditions: Compound Concentration 10 µM
# T2 construct: purchased KINOMEscan
# T2 sequence (P29320 21-983): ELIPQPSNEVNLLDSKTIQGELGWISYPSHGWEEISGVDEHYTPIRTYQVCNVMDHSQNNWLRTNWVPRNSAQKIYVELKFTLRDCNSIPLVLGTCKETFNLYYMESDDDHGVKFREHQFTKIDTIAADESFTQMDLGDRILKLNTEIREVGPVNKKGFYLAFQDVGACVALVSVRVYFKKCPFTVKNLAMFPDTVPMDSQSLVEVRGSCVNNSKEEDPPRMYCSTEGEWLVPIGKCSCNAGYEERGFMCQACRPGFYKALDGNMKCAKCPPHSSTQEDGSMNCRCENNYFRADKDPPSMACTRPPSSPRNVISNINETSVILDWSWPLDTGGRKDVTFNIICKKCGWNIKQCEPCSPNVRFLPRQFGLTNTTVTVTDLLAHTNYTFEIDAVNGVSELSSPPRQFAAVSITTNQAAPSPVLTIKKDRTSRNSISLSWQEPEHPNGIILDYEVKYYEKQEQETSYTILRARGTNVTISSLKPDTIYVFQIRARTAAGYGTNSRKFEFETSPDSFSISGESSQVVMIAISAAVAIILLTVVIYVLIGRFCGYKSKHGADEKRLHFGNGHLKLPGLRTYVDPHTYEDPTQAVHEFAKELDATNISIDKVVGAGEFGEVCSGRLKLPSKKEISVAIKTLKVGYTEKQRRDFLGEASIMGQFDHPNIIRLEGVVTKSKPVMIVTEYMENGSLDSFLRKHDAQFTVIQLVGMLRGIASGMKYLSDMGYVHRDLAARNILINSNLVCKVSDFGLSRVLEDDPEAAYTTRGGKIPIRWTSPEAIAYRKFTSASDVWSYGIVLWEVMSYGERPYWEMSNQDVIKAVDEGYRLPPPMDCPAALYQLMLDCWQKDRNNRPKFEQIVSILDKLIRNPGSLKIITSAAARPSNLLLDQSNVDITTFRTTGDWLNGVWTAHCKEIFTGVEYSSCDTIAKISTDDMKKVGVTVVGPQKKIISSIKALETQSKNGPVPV
# Source text: as §1
Structure (SMILES),KINOMEscan: ACVR1 [1],KINOMEscan: EPHA3 [2]
COc1cc(C(=O)N2CCC(N3CCN(C)CC3)CC2)ccc1Nc1ncc2c(n1)N(C)c1ccccc1C(=O)N2C [15 (LRRK2-IN-1)],98,100
COc1cc(C(=O)N2CCC(N3CCN(C)CC3)CC2)ccc1Nc1ncc2c(n1)N1CCc3cccc(c31)C(=O)N2C [Compound 24],–,91
"COc1cc(C(=O)N2CCC(N3CCN(C)CC3)CC2)ccc1Nc1ncc2c(n1)N(C1CCCC1)c1ccccc1C(=O)N2C [Compound 25, 11-cyclopentyl-2-((2-methoxy-4-(4-(4-methylpiperazin-1-yl)piperidine-1-carbonyl)phenyl)amino)-5-methyl-5H-benzo[e]pyrimido[5,4-b][1,4]diazepin-6(11H)-one]",100,100
CCOc1cc(C(=O)N2CCC(N3CCN(C)CC3)CC2)ccc1Nc1ncc2c(n1)N(C1CCCC1)c1ccccc1C(=O)N2C [Compound 26],100,95
